Reference: patent US20260041747A1, “T CELL EPITOPES ASSOCIATED WITH TYPE 1 DIABETES” (Repertoire Immune Medicines, Inc., priority 2022, published 2026)

Assays:
[1] = tested on: PBMC-derived CD8+ T cells from T1D patients; experiment: Binding of HLA-A*02:01 barcoded pMHC tetramer library to PBMC-derived CD8+ T cells of T1D patients and healthy donors; set-up: species or system human; details: for Normalized T1D prevalence: average number of times the epitope in the pMHC tetramer library was bound by cognate TCR in the T1D cohort, 8 T1D patients, 1 nM per tetramer; for % Presence in T1D samples: percentage of T1D samples in which the epitope response was observed
From the text: This example describes assessment of peptide binding to peripheral T cells from 8 short clinical duration T1D patients and 21 healthy donors who are HLA-matched without a history of diabetes, thereby to identify T1D-associated, HLA-A*02:01-restricted T cell epitopes.
Briefly, in the high-throughput screen described in Example 1, a library of HLA-A*02:01 oligo-barcoded pMHC tetramers was created as described in Francis et al., (2022) Sci Immunol 21:eabk3070. This tetramer library was composed of individual pMHCs representing hundreds of different epitopes identified in Example 1. CD8+ T cells were derived from frozen peripheral blood mononuclear cells (PBMCs) of human donors. CD8+ T cells were enriched via magnetic-activated cell separation from thawed PBMCs via commercially available negative enrichment kits (Miltenyi). Resulting enriched CD8+ T cells were counted and a standard input of 1 million CD8+ T cells per subject were then stained with tetramer libraries at final concentration of 1 nM per pMHC tetramer, in the presence of 2 mg/mL salmon sperm DNA in PBS with 0.5% BSA solution for 20 min. Stained cells were barcoded by commercially available anti-TCR antibody-derived tags (ADT, clone IP26, Biolegend). Tetramer bound cells were then labeled with phycoerythrin (PE) conjugated anti-DKDDDDK-Flag antibody (Biolegend) followed by dead cell discrimination using 7-amino-actinomycin D (7-AAD). Live, tetramer positive cells were sorted using a Sony MA900 Sorter. Following sorting, tetramer positive cells were single-cell sequenced using commercially available systems and protocols from 10× Genomics. Post-sequencing cells were demultiplexed and passed through standard quality control workflows (removal of duplicates, damaged cells, empty droplets, etc.) as described in Francis et al., (2022) Sci Immunol 21:eabk3070. Demultiplexed, tetramer positive cells were scored for pMHC-TCR interactions as described in Francis et al., (2022) Sci Immunol 21:eabk3070. Non-control pMHC-TCR putative binders passing quality control filters and scoring were used for analysis. The resulting pMHC-TCR matrix reactivity map was analyzed by abundance for “normalized T1D prevalence”, “relative enrichment”, and “% presence in T1D samples.” Normalized prevalence was defined as the average number of times an epitope in the pMHC tetramer library was bound by cognate TCR in the T1D cohort. […] Finally, for an epitope to be considered of value, it must pass prevalence and enrichment thresholds and have cognate T cells present in at least 75 percent of T1D subjects.

recombinant TCRs (rTCRs) = experiment: Activation (CD69+) of J76-CD8-NFAT-GFP cells expressing recombinant TCRs by peptide-loaded HLA-A*02:01+ T2 cells; type: cell-based, human; details: 50 μM peptide, T2 cells 1:1, 16 hours
From the text: This example describes functional validation of the T cell epitopes described in Examples 2 and 3, and their cognate TCRs, by assessing the ability of certain T cell epitopes, when presented by APCs that express HLA-A*02:01, to activate an immortalized T cell line expressing recombinant TCRs sequenced from the T cells of T1D patients and healthy donors. […] The relevance of certain identified T1D associated epitopes was evidenced by binding and activation of cognate TCRs in primary T cells or recombinant T cell lines.
(§1) Briefly, native paired alpha and beta TCR sequences identified from human tissues, such as PBMC or islet-derived CD8 T cells, were cloned into the pLVX-EFla lentiviral backbone (Takara) as a bicistronic TCRB-T2A-TCRa vector. TCRa/B/Jurkat J76 cells, which were engineered to express CD8 and a nuclear factor of activated T cells (NFAT)-green fluorescent protein (GFP) reporter (referred to as J76-CD8-NFAT-GFP), were transduced with lentiviral vectors produced from HEK 293T cells. To assess functional activity of the recombinant TCRs (rTCRs), J76-CD8-NFAT-GFP expressing recombinant TCRs were incubated at a 1:1 ratio with the HLA-A*02:01^+ T2(174×CEM.T2) (ATCC CRL-1991) lymphoblastic cell line, with a final concentration of 50 μM of cognate peptide (Vivitide, >95% pure) or 0.5% dimethylsulfoxide (DMSO, vehicle). Cell mixtures were incubated at 37° C., 5% CO2 for 16 hours. Activation of the T cells was assessed by flow cytometry using anti-CD3-PE-Cy7 (Clone UCHT1) and anti-CD69-APC (Clone FN50) antibodies, and analyzed using the Satorius iQue Screener Plus and FlowJo v10. Activation of rTCR-expressing cell lines was determined by comparing the mean percentage of CD69^+ cells out of CD3^+ cells, in cell mixtures with cognate peptide-loaded T2 cells, with the mean percentage in cell mixtures with no peptide (DMSO control).

[2] = tested on: pancreatic islet infiltrating T cells; experiment: Binding of pMHC library to polyclonally expanded islet-derived T cell lines from T1D organ donors; set-up: species or system human; details: single high abundance TCR
From the text: This example describes assessment of peptides that bind to T cell lines derived from living pancreatic islets of recently deceased pancreatic organ donors with T1D, thereby to identify T1D-associated, HLA-A*02:01-restricted T cell epitopes directly associated with islet infiltrating T cells. This assay, using specialized post-mortem processing of difficult-to-obtain pancreas biopsy, further confirmed the association of selected epitopes with T1D, given that disease-associated T cell epitopes generally result in infiltration of T cells that can cause inflammation and subsequent beta cell cytotoxicity in the pancreas.
Briefly, pancreatic slices were sourced from individuals with suspected or confirmed Type I diabetes diagnosis at the time of death by the Network of Pancreatic Organ Donors. Within in 72 hours of death, pancreatic islets were macrodissected from the slices under sterile conditions. These islets were cultured with a cocktail of cytokines and immune stimulating factors that allow T cell expansion independent of cognate TCR-pMHC interaction, using the polyclonal T cell expansion method described in Babon et al., (2016) Nat Med 22:1482-1487. The resulting T cell lines were then screened against pMHC libraries described in Example 2.
This epitope bound to a single, high abundance TCR derived from an individual that was diagnosed with Type I diabetes 4 months prior to death. […]

islet-derived rTCR = experiment: Peptide dose-response of islet-derived rTCR expressed in Jurkat T cells; type: cell-based, human; details: Jurkat T cells expressing islet-derived rTCR, pulsed with 0.001 to 100 μM peptide; approximate affinity of pMHC-rTCR interaction; read-out: EC50 (half maximal effective concentration)
Procedure: FIG. 1 depicts a dose-response for the islet-derived rTCR described in Table 5 when pulsed with a range of cognate peptide from 0.001 to 100 μM.
This epitope bound to a single, high abundance TCR derived from an individual that was diagnosed with Type I diabetes 4 months prior to death. […] The EC50 value represents an approximate affinity for the pMHC-rTCR[…] interaction.
as §1, with “To assess functional activity of the recombinant TCRs (rTCRs), J76-CD8-NFAT-GFP expressing recombinant TCRs were incubated at a 1:1 ratio with the HLA-A*02:01^+ T2(174×CEM.T2) (ATCC CRL-1991) lymphoblastic cell line, with a final concentration of 50 μM of cognate peptide (Vivitide, >95% pure) or 0.5% dimethylsulfoxide (DMSO, vehicle). Cell mixtures were incubated at 37° C., 5% CO2 for 16 hours.” left out

Row | Sequence | Normalized T1D prevalence [1] | % Presence in T1D samples [1] [%] | other results
1 | VLQASSISA | 3.19 | 100 | 
2 | FVAGLFVML | 1.88 | 87.5 | 
3 | KLNWDLHTA | 3.63 | 87.5 | 
4 | VLVNKVLLV | 1.69 | 87.5 | Mean % CD69+ T cells with cognate peptide (recombinant TCRs (rTCRs); TCR_10, source PBMC): 29.45%
5 | LMSGILGLA | 2.44 | 87.5 | 
6 | FLPYDHARI | 2.94 | 87.5 | 
7 | MVWESGCVV | 16.313 | 100 | 
8 | TLDIFLEIV |  |  | Mean % CD69+ T cells with cognate peptide (recombinant TCRs (rTCRs); TCR_17, source PBMC): 36.7%
9 | SVALWNNAV | 1.13 | 87.5 | 
10 | QALDVGWLV | 1.19 | 87.5 | 
11 | TLVTLCHYA | 1.94 | 87.5 | 
12 | KMAKDWKTV | 2.38 | 100 | Mean % CD69+ T cells with cognate peptide (recombinant TCRs (rTCRs); TCR_12, source PBMC): 18.65%
13 | GQWAGGAYA | 1.81 | 87.5 | 
14 | NLYTFVLKV | 2.56 | 87.5 | 
15 | ALAWAVWLA | 1.94 | 87.5 | 
16 | KLSPSQHLA | 1.06 | 87.5 | 
17 | NLLYPVPLV | 2.81 | 87.5 | Mean % CD69+ T cells with cognate peptide (recombinant TCRs (rTCRs); TCR_03, source PBMC): 49.75%; Mean % CD69+ T cells with cognate peptide (recombinant TCRs (rTCRs); TCR_08, source PBMC): 27.25%; Mean % CD69+ T cells with cognate peptide (recombinant TCRs (rTCRs); TCR_11, source PBMC): 21.65%
18 | VIGDWLNLI | 2.188 | 75 | Binding to islet-derived T cells from T1D patients [2]: identified as binding; EC50 (islet-derived rTCR): 2.2 µM; Mean % CD69+ T cells with cognate peptide (recombinant TCRs (rTCRs); TCR_09, source PBMC): 26.15%; Mean % CD69+ T cells with cognate peptide (recombinant TCRs (rTCRs); TCR_18, source PBMC): 26.15%; Mean % CD69+ T cells with cognate peptide (recombinant TCRs (rTCRs); TCR_19, source islet): 28.8%
19 | FLSWALNSC | 2.50 | 100 | 
20 | TLMAVIGGL | 3.63 | 100 | 
21 | YAPWELLSV | 2.44 | 87.5 | Mean % CD69+ T cells with cognate peptide (recombinant TCRs (rTCRs); TCR_05, source PBMC): 38.4%; Mean % CD69+ T cells with cognate peptide (recombinant TCRs (rTCRs); TCR_13, source PBMC): 17.55%
22 | LQFRGSMLA | 2.00 | 100 | 
23 | QLLFSLPKL |  |  | Mean % CD69+ T cells with cognate peptide (recombinant TCRs (rTCRs); TCR_16, source PBMC): 61.55%
24 | TLSWALYEL | 2.50 | 100 | Mean % CD69+ T cells with cognate peptide (recombinant TCRs (rTCRs); TCR_01, source PBMC): 59.8%; Mean % CD69+ T cells with cognate peptide (recombinant TCRs (rTCRs); TCR_02, source PBMC): 58%; Mean % CD69+ T cells with cognate peptide (recombinant TCRs (rTCRs); TCR_04, source PBMC): 48%; Mean % CD69+ T cells with cognate peptide (recombinant TCRs (rTCRs); TCR_06, source PBMC): 39%; Mean % CD69+ T cells with cognate peptide (recombinant TCRs (rTCRs); TCR_07, source PBMC): 33.55%; Mean % CD69+ T cells with cognate peptide (recombinant TCRs (rTCRs); TCR_14, source PBMC): 15.45%
25 | LLPPRVLPA |  |  | Mean % CD69+ T cells with cognate peptide (recombinant TCRs (rTCRs); TCR_15, source PBMC): 32.25%
26 | FSESILTYV | 2.88 | 87.5 | 
27 | ALMGQAAGV | 1.50 | 87.5 | 
28 | TLSKPSPMPV | 1.06 | 87.5 | 
